For the experiment, the system named is A2780 cells. The experiment can be described thus: In-vitro cell proliferation assay (SRB, 72 hours). The experiment is classed as cell-based. To be noted: Homo sapiens, A2780, 72 h, A2780 cells, 72 hours, SRB; read-out: Cell Proliferation (IC50).

IC50 data for 33 compounds are collected here from patent US10730889B2, “Amido spirocyclic amide and sulfonamide derivatives” (Forma TM, LLC, priority 2012, dated 2020).

In the case of `Cc1cc(C)n(CCC(=O)N2CCC3(CC2)CC3CNC(=O)c2cc3ccncc3o2)n1` (stereo not drawn) [Example 63, N-[[6-[3-(3,5-dimethylpyrazol-1-yl)propanoyl]-6-azaspiro[2.5]octan-2-yl]methyl]furo[2,3-c]pyridine-2-carboxamide], the IC50 came out at 1390 nM.

Regarding `NC(=O)N1CCCC1C(=O)N1CCC2(CC1)CC2CNC(=O)c1cc2ccncc2o1` (stereo not drawn) [Example 64, N-[[6-(1-carbamoylpyrrolidine-2-carbonyl)-6-azaspiro[2.5]octan-2-yl]methyl]furo[2,3-c]pyridine-2-carboxamide], the IC50 was determined as 2000 nM.

For `O=C(NCC1CC12CCN(C(=O)CCN1CCOCC1)CC2)c1cc2ccncc2o1` (stereo not drawn) [Example 65, N-[[6-(3-morpholinopropanoyl)-6-azaspiro[2.5]octan-2-yl]methyl]furo[2,3-c]pyridine-2-carboxamide], the IC50 amounted to 931 nM.

Regarding `O=C(NCC1CC12CCN(C(=O)C1CCS(=O)(=O)C1)CC2)c1cc2ccncc2o1` (stereo not drawn) [Example 66, N-[[6-(1,1-dioxothiolane-3-carbonyl)-6-azaspiro[2.5]octan-2-yl]methyl]furo[2,3-c]pyridine-2-carboxamide], the IC50 amounted to 2000 nM.

With `Cc1cc(C)n(CC(=O)N2CCC3(CC2)CC3CNC(=O)c2cc3ccncc3o2)n1` (stereo not drawn) [Example 67, N-[[6-[2-(3,5-dimethylpyrazol-1-yl)acetyl]-6-azaspiro[2.5]octan-2-yl]methyl]furo[2,3-c]pyridine-2-carboxamidc], the IC50 was 193 nM.

Consider `CC(=O)N1CCCC1C(=O)N1CCC2(CC1)CC2CNC(=O)c1cc2ccncc2o1` (stereo not drawn) [Example 68, N-[[6-(1-acetylpyrrolidine-2-carbonyl)-6-azaspiro[2.5]octan-2-yl]methyl]furo[2,3-c]pyridine-2-carboxamide], for which the IC50 stood at 414 nM.

In the case of `CS(=O)(=O)c1ccccc1C(=O)N1CCC2(CC1)CC2CNC(=O)c1cc2ccncc2o1` (stereo not drawn) [Example 69, N-[[6-(2-methylsulfonylbenzoyl)-6-azaspiro[2.5]octan-2-yl]methyl]furo[2,3-c]pyridine-2-carboxamide], the IC50 was determined as 194 nM.

As for `O=C(NCC1CC12CCN(C(=O)c1cccc(-n3cnnc3)c1)CC2)c1cc2ccncc2o1` (stereo not drawn) [Example 70, N-[[6-[3-(1,2,4-triazol-4-yl)benzoyl]-6-azaspiro[2.5]octan-2-yl]methyl]furo[2,3-c]pyridine-2-carboxamide], the IC50 amounted to 492 nM.

Turning to `CC(=O)Nc1ccc(C(=O)N2CCC3(CC2)CC3CNC(=O)c2cc3ccncc3o2)cc1` (stereo not drawn) [Example 72, N-[[6-(4-acetamidobenzoyl)-6-azaspiro[2.5]octan-2-yl]methyl]furo[2,3-c]pyridine-2-carboxamide], the IC50 was 48.1 nM.

`CS(=O)(=O)N1CCCC(C(=O)N2CCC3(CC2)CC3CNC(=O)c2cc3ccncc3o2)C1` (stereo not drawn) [Example 73, N-[[6-(1-methylsulfonylpiperidine-3-carbonyl)-6-azaspiro[2.5]octan-2-yl]methyl]furo[2,3-c]pyridine-2-carboxamide]: the IC50 turned out to be 25.8 nM.

Turning to `CS(=O)(=O)N1CCC(C(=O)N2CCC3(CC2)CC3CNC(=O)c2cc3ccncc3o2)CC1` (stereo not drawn) [Example 74, N-[[6-(1-methylsulfonylpiperidine-4-carbonyl)-6-azaspiro[2.5]octan-2-yl]methyl]furo[2,3-c]pyridine-2-carboxamide], the IC50 is 169 nM.

On to `CC(C(=O)N1CCC2(CC1)CC2CNC(=O)c1cc2ccncc2o1)N1CCOCC1` (stereo not drawn) [Example 75, N-[[6-(2-morpholinopropanoyl)-6-azaspiro[2.5]octan-2-yl]methyl]furo[2,3-c]pyridine-2-carboxamide], for which the IC50 worked out at 80.9 nM.

Consider `CS(=O)(=O)N1CCCC1C(=O)N1CCC2(CC1)CC2CNC(=O)c1cc2ccncc2o1` (stereo not drawn) [Example 76, N-[[6-(1-methylsulfonylpyrrolidine-2-carbonyl)-6-azaspiro[2.5]octan-2-yl]methyl]furo[2,3-c]pyridine-2-carboxamide], for which the IC50 was found to be 228 nM.

With `O=C(NCC1CC12CCN(C(=O)CC1NC(=O)c3ccccc31)CC2)c1cc2ccncc2o1` (stereo not drawn) [Example 77, N-[[6-[2-(3-oxoisoindolin-1-yl)acetyl]-6-azaspiro[2.5]octan-2-yl]methyl]furo[2,3-c]pyridine-2-carboxamide], the IC50 amounted to 1150 nM.

On to `NC(=O)N1CCC(C(=O)N2CCC3(CC2)CC3CNC(=O)c2cc3ccncc3o2)CC1` (stereo not drawn) [Example 78, N-[[6-(1-carbamoylpiperidme-4-carbonyl)-6-azaspiro[2.5]octan-2-y]methyl]furo(2,3-c]pyridine-2-carboxamide], for which the IC50 amounted to 2000 nM.

In the case of `NC(=O)N1CCCC(C(=O)N2CCC3(CC2)CC3CNC(=O)c2cc3ccncc3o2)C1` (stereo not drawn) [Example 79, N-[[6-(1-carbamoylpiperidine-3-carbonyl)-6-azaspiro[2.5]octan-2-yl]methyl]furo[2,3-c]pyridine-2-carboxamide], the IC50 stood at 2000 nM.

For `O=C(NCC1CC12CCN(C(=O)CC1CCS(=O)(=O)C1)CC2)c1cc2ccncc2o1` (stereo not drawn) [Example 80, N-[[6-[2-(1,1-dioxothiolan-3-yl)acetyl]-6-azaspiro[2.5]octan-2-yl]methyl]furo[2,3-c]pyridine-2-carboxamide], the IC50 was 1340 nM.

Consider `O=C(NCC1CC12CCN(C(=O)Cn1ccc(=O)[nH]c1=O)CC2)c1cc2ccncc2o1` (stereo not drawn) [Example 81, N-[[6-[2-(2,4-dioxopyrimidin-1-yl)acetyl]-6-azaspiro[2.5]octan-2-yl]methyl]furo[2,3-c]pyridine-2-carboxamide], for which the IC50 was 2000 nM.

As to `CC(=O)N1CCC(C(=O)N2CCC3(CC2)CC3CNC(=O)c2cc3ccncc3o2)CC1` (stereo not drawn) [Example 82, N-[[6-(1-acetylpiperidine-4-carbonyl)-6-azaspiro[2.5]octan-2-yl]methyl]furo[2,3-c]pyridine-2-carboxamide], the IC50 was 710 nM.

In the case of `O=C(NCC1CC12CCN(C(=O)c1ccc(Cn3cnnn3)cc1)CC2)c1cc2ccncc2o1` (stereo not drawn) [Example 83, N-[[6-[4-(tetrazol-1-ylmethyl)benzoyl]-6-azaspiro[2.5]octan-2-yl]methyl]furo[2,3-c]pyridine-2-carboxamide], the IC50 came to 1080 nM.

For `CS(=O)(=O)Nc1ccc(C(=O)N2CCC3(CC2)CC3CNC(=O)c2cc3ccncc3o2)cc1` (stereo not drawn) [Example 84, N-[[6-[4-(methanesulfonamido)benzoyl]-6-azaspiro[2.5]octan-2-yl]methyl]furo[2,3-c]pyridine-2-carboxamide], the IC50 was determined as 185 nM.

Take `O=C(NCC1CC12CCN(C(=O)c1ccc(N3CCS(=O)(=O)CC3)cc1)CC2)c1cc2ccncc2o1` (stereo not drawn) [Example 85, N-[[6-[4-(1,1-dioxo-1,4-thiazinan-4-yl)benzoyl]-6-azaspiro[2.5]octan-2-yl)methyl]furo[2,3-c]pyridine-2-carboxamide]: the IC50 worked out at 14.2 nM.

For `CN1CCN(Cc2ccc(C(=O)N3CCC4(CC3)CC4CNC(=O)c3cc4ccncc4o3)cc2)CC1` (stereo not drawn) [Example 86, N-[[6-[4-[(4-methylpiperazin-1-yl)methyl]benzoyl]-6-azaspiro[2.5]octan-2-yl]methyl]furo[2,3-c]pyridine-2-carboxamide], the IC50 came out at 4.53 nM.

`CN1CCN(Cc2ccccc2C(=O)N2CCC3(CC2)CC3CNC(=O)c2cc3ccncc3o2)CC1` (stereo not drawn) [Example 87, N-[[6-[2-[(4-methylpiperazin-1-yl)methyl]benzoyl]-6-azaspiro[2.5]octan-2-yl]methyl]furo[2,3-c]pyridine-2-carboxamide]: the IC50 is 2000 nM.

Turning to `CN1CCN(Cc2cccc(C(=O)N3CCC4(CC3)CC4CNC(=O)c3cc4ccncc4o3)c2)CC1` (stereo not drawn) [Example 88, N-[[6-[3-[(4-methylpiperazin-1-yl)methyl]benzoyl]-6-azaspiro[2.5]octan-2-yl]methyl]furo[2,3-c]pyridine-2-carboxamide], the IC50 was determined as 9.77 nM.

As for `CN1CCN(CCC(=O)N2CCC3(CC2)CC3CNC(=O)c2cc3ccncc3o2)CC1` (stereo not drawn) [Example 89, N-[[6-[3-(4-methylpiperazin-1-yl)propanoyl]-6-azaspiro[2.5]octan-2-yl]methyl]furo[2,3-c]pyridine-2-carboxamide], the IC50 came to 116 nM.

In the case of `CC(C)N1CC(C(=O)N2CCC3(CC2)CC3CNC(=O)c2cc3ccncc3o2)CC1=O` (stereo not drawn) [Example 90, N-[[6-(1-isopropyl-5-oxo-pyrrolidine-3-carbonyl)-6-azaspiro[2.5]octan-2-yl)methyl]furo[2,3-c]pyridine-2-carboxamide], the IC50 is 183 nM.

On to `O=C1CN(CC(=O)N2CCC3(CC2)CC3CNC(=O)c2cc3ccncc3o2)CCN1` (stereo not drawn) [Example 91, N-[[6-[2-(3-oxopiperazin-1-yl)acetyl]-6-azaspiro[2.5]octan-2-yl]methyl]furo[2,3-c]pyridine-2-carboxamide], for which the IC50 stood at 2000 nM.

In the case of `CS(=O)(=O)c1cccc(C(=O)N2CCC3(CC2)CC3CNC(=O)c2cc3ccncc3o2)c1` (stereo not drawn) [Example 92, N-[[6-(3-methylsulfonylbenzoyl)-6-azaspiro[2.5]octan-2-yl]methyl]furo[2,3-c]pyridine-2-carboxamide], the IC50 came out at 152 nM.

On to `CS(=O)(=O)c1ccc(C(=O)N2CCC3(CC2)CC3CNC(=O)c2cc3ccncc3o2)cc1` (stereo not drawn) [Example 93, N-[[6-(4-methylsulfonylbenzoyl)-6-azaspiro[2.5]octan-2-yl]methyl]furo[2,3-c]pyridine-2-carboxamide], for which the IC50 turned out to be 878 nM.

For the compound `NC(=O)Nc1ccc(C(=O)N2CCC3(CC2)CC3CNC(=O)c2cc3ccncc3o2)cc1` (stereo not drawn) [Example 94, N-[[6-(4-ureidobenzoyl)-6-azaspiro[2.5]octan-2-yl]methyl]furo[2,3-c]pyridine-2-carboxamide], the IC50 was 437 nM.

Consider `CC(=O)N1CCN(CC(=O)N2CCC3(CC2)CC3CNC(=O)c2cc3ccncc3o2)CC1` (stereo not drawn) [Example 95, N-[[6-[2-(4-acetylpiperazin-1-yl)acetyl]-6-azaspiro[2.5]octan-2-yl]methyl]furo[2,3-c]pyridine-2-carboxamide], for which the IC50 is 2000 nM.

Regarding `Cc1nnnn1Cc1ccc(C(=O)N2CCC3(CC2)CC3CNC(=O)c2cc3ccncc3o2)cc1` (stereo not drawn) [Example 96, N-[[6-[4-[(5-methyltetrazol-1-yl]methyl]benzoyl]-6-azaspiro[2.5]octan-2-yl]methyl]furo[2,3-c]pyridine-2-carboxamide], the IC50 is 711 nM.
